According to patent US7375124B2, “Use of α-phenylthiocarboxylic and α-phenyloxycarboxylic acids with serum-glucose-lowering and serum-lipid-lowering activity” (Sigma-Tau Industrie Farmaceutiche Riunite S.p.A., priority 2002, dated 2008):

What was measured:
mPPARαLBD/Gal4DBD = molecular target: T1, mPPARαLBD/Gal4DBD (Mus musculus, UniProt P23204); assay: Transactivation assay mediated by mPPARαLBD/Gal4DBD in COS-7 cells (CAT reporter); type: cell-based
T1 construct: expressed in transfected cells; host or cells: COS-7 (monkey kidney fibroblasts)
T1 sequence (P23204 239-466 limits assumed): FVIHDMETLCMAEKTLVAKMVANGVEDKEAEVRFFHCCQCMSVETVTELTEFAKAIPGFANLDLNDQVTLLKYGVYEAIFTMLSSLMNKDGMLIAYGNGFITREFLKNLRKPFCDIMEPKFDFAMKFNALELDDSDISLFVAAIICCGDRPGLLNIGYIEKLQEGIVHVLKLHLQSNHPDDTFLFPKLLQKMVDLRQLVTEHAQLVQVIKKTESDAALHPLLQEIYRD
From the text: In this model a transactivation assay is used in which the expression vector mPPARαLBD/Gal4 DBD allows the synthesis by the transfected cell of a chimeric protein, in which the ligand binding domain (LBD) of PPARα is fused with the DNA binding domain (DBD) of the transcription factor GAL4 of yeast [Luckow B. et al., Nucleic Acids Res. 15, 5490 (1987)]. Simultaneously, a plasmid (pG5CAT) is transfected which contains 5 copies of the high-affinity binding site for GAL4 (also called UAS, upstream activating sequence), upstream of the viral promoter E1b fused with the CAT reporter gene [Moya-Camarena S. Y. et al., J. Lipid Res. 40 (8), 1426-33 (1999)]. This model eliminates interference by possible endogenous receptors.
This is due to the fact that the activation of E1b and the production of CAT will occur exclusively thanks to the interaction of GAL4 DBD with its own response element (UAS). Since the transcription factor GAL4 is not expressed in […] cells, transactivation of the reporter gene can take place only when, as a result of the interaction of a ligand with the LBD of PPARα, the chimeric protein PPARα/GAL4 recognises the UAS sequence on the plasmid pG5CAT. Together with the expression vector and the reporter vector the cells were also transfected with the plasmid pCH110 which provides the internal control for the efficiency of transfection and the normalisation of the results.
A monkey kidney fibroblast cell line (COS-7) was used [Elbrecht A. et al., J. Biol. Chem. 274 (12), 7913-22 (1999)]. The cells were co-transfected with the reporter vector, the expression plasmid coding for the fusion protein Gal4 DBD/PPARαLBD and the control vector pCH110. The cells were exposed to increasing concentrations of the study compounds and CAT activity was evaluated. Untreated cells were used as controls.
Monkey kidney fibroblasts (COS-7) were cultured according to the usual cell culture techniques, at 37° C. in a 5% v/v carbon dioxide atmosphere using as the growth medium DMEM (Dulbecco's modified Eagle's medium) modified with 3.7 g/l of sodium bicarbonate, 4 mM L-glutamine, 4.5 g/l of glucose, 1 mM sodium pyruvate and 10% v/v of foetal bovine serum, in the presence of streptomycin 100 μg/ml and penicillin 100 U/ml final.
The cells were co-transfected using the transfection reagent FuGENE6 (Roche), consisting of a defined mixture of lipids capable of complexing the DNA and of transporting it into the cells. Twenty-four hours prior to transfection the cells were plated at a density of 1.2×10^5 cells/well in 12-well plates and maintained at 37° C. in a 5% v/v CO2 atmosphere. […] Briefly, the transfection mixture containing 0.8 μg of the expression vector, 1.6 μg of the reporter vector, 0.8 μg of the control vector and 9 μl of the FuGENE6 reagent per well was added directly to the cells in the presence of culture medium devoid of serum. After 5 hours, the transfection medium was replaced by 1 ml of culture medium complete with serum and antibiotics in the presence or absence of the molecules to be tested at 3 different concentrations (2, 20 and 100 μM). Wy-14,643 (2 μM), a known ligand of PPARα, was used as the positive reference compound.
After 48 hours' incubation at 37° C. in a 5% v/v CO2 atmosphere, the cells were washed twice with 1 ml of phosphate buffer (PBS) and removed mechanically from the wells in TEN buffer (Tris[hydroxymethyl]aminomethane 10 mM pH 8, ethylenediamine-tetraacetic acid 1 mM pH 8, sodium chloride 0.1 M). After centrifuging for 3 minutes at 1000 rpm, the cells were resuspended in 65 μl of lysis buffer (Tris-HCl 0.25 M, pH 8) and then lysed thanks to three rapid freeze-thaw cycles. The insoluble cellular materials (debris) were removed by centrifuging at 15,000 rpm for 15 minutes at 4° C., and the supernatant was recovered and used for the CAT and β-galactosidase activity assays. […]

CC(C)(Sc1cccc(OCCc2ccc(Cl)cc2)c1)C(=O)O [Example 2, 2-[3-[2-(4-chlorophenyl)ethoxy]phenylthio]-2-methylpropanoic acid]
Activation of reporter gene CAT as a percentage of the reference compound (WY-14,643 2 μM = 100%) (mPPARαLBD/Gal4DBD; 2 μM): 69.7% | Activation of reporter gene CAT as a percentage of the reference compound (WY-14,643 2 μM = 100%) (mPPARαLBD/Gal4DBD; 20 μM): 103.6% | Activation of reporter gene CAT as a percentage of the reference compound (WY-14,643 2 μM = 100%) (mPPARαLBD/Gal4DBD; 100 μM): 280.9% | melting point: 105 to 106 °C
